In patent publication US10435405B2, “Pyrazolopyridine compounds and uses thereof” (Incyte Corporation, priority 2016, dated 2019):

Target: HPK1 (Homo sapiens (Human), UniProt Q92918)
Assay: HPK1 Kinase Binding Assay
Procedure, shortened: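 This is a LanthaScreen tracer-binding format: a tracer 222/Eu-anti-GST antibody mix (18 nM and 4 nM solution) is added to active HPK1 (4 nM solution) with 3-fold, 11-point compound dilutions. Incubation is 1 h at 25 °C in HEPES pH 7.5 buffer before reading, and Ki is determined.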

Chain of HPK1 (Q92918 1-346): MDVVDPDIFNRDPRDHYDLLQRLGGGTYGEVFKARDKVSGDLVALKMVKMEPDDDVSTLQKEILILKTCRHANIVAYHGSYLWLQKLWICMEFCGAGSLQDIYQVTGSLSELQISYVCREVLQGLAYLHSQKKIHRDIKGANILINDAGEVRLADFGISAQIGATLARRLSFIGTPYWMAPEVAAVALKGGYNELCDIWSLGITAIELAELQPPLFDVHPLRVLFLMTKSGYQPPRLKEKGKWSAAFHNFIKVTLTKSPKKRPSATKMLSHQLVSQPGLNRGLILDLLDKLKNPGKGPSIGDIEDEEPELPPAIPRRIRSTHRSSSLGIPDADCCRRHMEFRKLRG

| Structure (SMILES) | Ki |
| --- | --- |
| COc1cccc(F)c1-c1cc2c(NC(=O)c3ccc(N4CCNC(=O)C4)cc3)n[nH]c2cn1 [Example 25, N-(5-(2-Fluoro-6-methoxyphenyl)-1H-pyrazolo[3,4-c]pyridin-3-yl)-4-(3-oxopiperazin-1-yl)benzamide] | ≤ 0.1 µM |
| Cc1cc(NC(=O)CC#N)cc(F)c1-c1cc2c(-c3cnn(C)c3)n[nH]c2cn1 [Example 85, 2-Cyano-N-(3-fluoro-5-methyl-4-(3-(1-methyl-1H-pyrazol-4-yl)-1H-pyrazolo[3,4-c]pyridin-5-yl)phenyl)acetamide] | ≤ 0.1 µM |
| CNC(C)c1cc(C)c(-c2cc3c(-c4cnn(C)c4)n[nH]c3cn2)c(F)c1 (single isomer, unassigned) [Example 189, 1-(3-Fluoro-5-methyl-4-(3-(1-methyl-1H-pyrazol-4-yl)-1H-pyrazolo[3,4-c]pyridin-5-yl)phenyl)-N-methylethanamine] | ≤ 0.1 µM |
| COc1cccc(F)c1-c1cc2c(NC(=O)c3ccc(N4CCN(C)CC4)cc3)n[nH]c2cn1 [Example 26, N-(5-(2-Fluoro-6-methoxyphenyl)-1H-pyrazolo[3,4-c]pyridin-3-yl)-4-(4-methylpiperazin-1-yl)benzamide] | ≤ 0.1 µM |
| Cc1cc(NC(=O)CN2CCCC2)cc(F)c1-c1cc2c(-c3cnn(C)c3)n[nH]c2cn1 [Example 80, N-(3-Fluoro-5-methyl-4-(3-(1-methyl-1H-pyrazol-4-yl)-1H-pyrazolo[3,4-c]pyridin-5-yl)phenyl)-2-(pyrrolidin-1-yl)acetamide] | ≤ 0.1 µM |
| CNC(=O)c1ccc(-c2n[nH]c3cnc(-c4c(F)cccc4OC)cc23)cc1F [Example 100, 2-Fluoro-4-(5-(2-fluoro-6-methoxyphenyl)-1H-pyrazolo[3,4-c]pyridin-3-yl)-N-methylbenzamide] | ≤ 0.1 µM |
| Cn1cc(-c2n[nH]c3cnc(-c4cccc(CN5CCC5)c4C(F)(F)F)cc23)cn1 [Example 89, 5-(3-(Azetidin-1-ylmethyl)-2-(trifluoromethyl)phenyl)-3-(1-methyl-1H-pyrazol-4-yl)-1H-pyrazolo[3,4-c]pyridine] | ≤ 0.1 µM |
| CNC(=O)c1ccc(-c2n[nH]c3cnc(-c4c(F)cccc4OC)cc23)cc1C [Example 103, 4-(5-(2-Fluoro-6-methoxyphenyl)-1H-pyrazolo[3,4-c]pyridin-3-yl)-N,2-dimethylbenzamide] | ≤ 0.1 µM |
| COc1cccc(F)c1-c1cc2c(NC(=O)c3ccc(F)cc3)n[nH]c2cn1 [Example 5, 4-Fluoro-N-(5-(2-fluoro-6-methoxyphenyl)-1H-pyrazolo[3,4-c]pyridin-3-yl)benzamide] | ≤ 0.1 µM |
| COc1cccc(F)c1-c1cc2c(NC(=O)c3ccc(N4CCOCC4)cc3)n[nH]c2cn1 [Example 24, N-(5-(2-Fluoro-6-methoxyphenyl)-1H-pyrazolo[3,4-c]pyridin-3-yl)-4-morpholinobenzamide] | ≤ 0.1 µM |
| CNCc1ccc(-c2cc3c(-c4cnn(C)c4)n[nH]c3cn2)c(C)c1 [Example 111, N-Methyl-1-(3-methyl-4-(3-(1-methyl-1H-pyrazol-4-yl)-1H-pyrazolo[3,4-c]pyridin-5-yl)phenyl)methanamine] | ≤ 0.1 µM |
| COc1cccc(F)c1-c1cc2c(NC(=O)c3ccc(Br)cc3)n[nH]c2cn1 [Example 3, 4-Bromo-N-(5-(2-fluoro-6-methoxyphenyl)-1H-pyrazolo[3,4-c]pyridin-3-yl)benzamide] | ≤ 0.1 µM |
| CN1CCN(c2ccc(-c3n[nH]c4cnc(-c5c(F)cccc5Cl)cc34)cc2)CC1 [Example 47, 5-(2-Chloro-6-fluorophenyl)-3-(4-(4-methylpiperazin-1-yl)phenyl)-1H-pyrazolo[3,4-c]pyridine] | ≤ 0.1 µM |

Now from value to molecule:

| Ki | Structure (SMILES) |
| --- | --- |
| ≤ 0.1 µM | CNCc1cc(F)c(-c2ncc3[nH]nc(-c4cnn(C)c4)c3c2OC)c(F)c1 [Example 215, 1-(3,5-Difluoro-4-(4-methoxy-3-(1-methyl-1H-pyrazol-4-yl)-1H-pyrazolo[3,4-c]pyridin-5-yl)phenyl)-N-methylmethanamine] |
| ≤ 0.1 µM | CCNCc1ccc(F)c(-c2cc3c(-c4cnn(C)c4)n[nH]c3cn2)c1C [Example 236, N-(4-Fluoro-2-methyl-3-(3-(1-methyl-1H-pyrazol-4-yl)-1H-pyrazolo[3,4-c]pyridin-5-yl)benzyl)ethanamine] |
| ≤ 0.1 µM | CNCc1cc(F)c(-c2cc3c(-c4cncc(N5CCN(C)CC5)c4)n[nH]c3cn2)c(F)c1 [Example 219, 1-(3,5-Difluoro-4-(3-(5-(4-methylpiperazin-1-yl)pyridin-3-yl)-1H-pyrazolo[3,4-c]pyridin-5-yl)phenyl)-N-methylmethanamine] |
| ≤ 0.1 µM | CNC1CCc2c1cc(F)c(-c1cc3c(-c4cnn(C)c4)n[nH]c3cn1)c2F (stereo not shown) [Example 198, 4,6-Difluoro-N-methyl-5-(3-(1-methyl-1H-pyrazol-4-yl)-1H-pyrazolo[3,4-c]pyridin-5-yl)-2,3-dihydro-1H-inden-1-amine] |
| ≤ 0.1 µM | Cn1cc(-c2n[nH]c3cnc(-c4c(F)cc(C5CCCN5)cc4C(F)(F)F)cc23)cn1 (single isomer, unassigned) [Example 226, 5-(2-Fluoro-4-(pyrrolidin-2-yl)-6-(trifluoromethyl)phenyl)-3-(1-methyl-1H-pyrazol-4-yl)-1H-pyrazolo[3,4-c]pyridine] |
| ≤ 0.1 µM | CN1CCN(c2ccc(-c3n[nH]c4cnc(-c5c(F)cc6c(c5F)CCCC6N)cc34)cn2)CC1 (stereo not shown) [Example 203, 5,7-Difluoro-6-(3-(6-(4-methylpiperazin-1-yl)pyridin-3-yl)-1H-pyrazolo[3,4-c]pyridin-5-yl)-1,2,3,4-tetrahydronaphthalen-1-amine] |
| ≤ 0.1 µM | CNCc1cc(C)c(-c2cc3c(-c4ccc(N5CCCC(OC)C5)nc4)n[nH]c3cn2)c(F)c1 (stereo not shown) [Example 114, 1-(3-Fluoro-4-(3-(6-(3-methoxypiperidin-1-yl)pyridin-3-yl)-1H-pyrazolo[3,4-c]pyridin-5-yl)-5-methylphenyl)-N-methylmethanamine] |
| ≤ 0.1 µM | CCNCc1cc(F)c(-c2cc3c(NC(=O)c4ccc(N5CCN(C)CC5)cc4)n[nH]c3cn2)c(C(F)(F)F)c1 [Example 154, N-(5-(4-((Ethylamino)methyl)-2-fluoro-6-(trifluoromethyl)phenyl)-1H-pyrazolo[3,4-c]pyridin-3-yl)-4-(4-methylpiperazin-1-yl)benzamide] |
| ≤ 0.1 µM | CNCc1ccc(F)c(-c2cc3c(-c4cnn(C)c4)n[nH]c3cn2)c1C(F)(F)F [Example 225, 1-(4-Fluoro-3-(3-(1-methyl-1H-pyrazol-4-yl)-1H-pyrazolo[3,4-c]pyridin-5-yl)-2-(trifluoromethyl)phenyl)-N-methylmethanamine] |
| ≤ 0.1 µM | CNCc1cc(F)c(-c2cc3c(-c4ccc(OC)cc4)n[nH]c3cn2)c(F)c1 [Example 165, 1-(3,5-Difluoro-4-(3-(4-methoxyphenyl)-1H-pyrazolo[3,4-c]pyridin-5-yl)phenyl)-N-methylmethanamine] |
| ≤ 0.1 µM | Cc1cc(CN2CCC(O)C2)cc(F)c1-c1cc2c(-c3cnn(C)c3)n[nH]c2cn1 (stereo not shown) [Example 183, 1-(3-Fluoro-5-methyl-4-(3-(1-methyl-1H-pyrazol-4-yl)-1H-pyrazolo[3,4-c]pyridin-5-yl)benzyl)pyrrolidin-3-ol] |
| ≤ 0.1 µM | CNCc1cc(F)c(-c2cc3c(-c4cnn(-c5ccccc5C#N)c4)n[nH]c3cn2)c(F)c1 [Example 161, 2-(4-(5-(2,6-Difluoro-4-((methylamino)methyl)phenyl)-1H-pyrazolo[3,4-c]pyridin-3-yl)-1H-pyrazol-1-yl)benzonitrile] |
